In patent publication US20250326772A1, “MRGPRX2 ANTAGONISTS, PHARMACEUTICAL COMPOSITION INCLUDING MRGPRX2 ANTAGONIST, AND METHOD OF TREATING MRGPRX2-MEDIATED DISEASE OR DISORDER” (KYORIN PHARMACEUTICAL CO., LTD., priority 2024, published 2025) one finds IC50 data, which are given here for 43 molecules.

This experiment deals with T1, MRGPRX2 (Homo sapiens, UniProt Q96LB1).
T1 sequence (Q96LB1 1-330): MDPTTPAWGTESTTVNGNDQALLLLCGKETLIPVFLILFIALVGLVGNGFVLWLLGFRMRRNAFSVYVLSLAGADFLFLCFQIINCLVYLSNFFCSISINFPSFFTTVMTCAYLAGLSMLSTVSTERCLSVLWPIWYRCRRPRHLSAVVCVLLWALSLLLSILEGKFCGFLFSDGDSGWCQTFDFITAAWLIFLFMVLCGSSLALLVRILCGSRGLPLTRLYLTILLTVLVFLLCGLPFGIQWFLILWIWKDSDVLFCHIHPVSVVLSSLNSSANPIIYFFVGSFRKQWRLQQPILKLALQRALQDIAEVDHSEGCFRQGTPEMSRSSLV
Kind of experiment: MRGPRX2 reporter cell assay (NFAT-RE luciferase, Substance P stimulation). To be noted: U2OS cells stably transfected with MRGPRX2 and NFAT-RE luciferase reporter, Substance P at EC80. Type of experiment: cell-based. In a few lines:
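U2OS cells stably expressing MRGPRX2 and an NFAT-RE luc2P reporter, pre-incubated 30 min at 37° C with compound (0.5% DMSO), then stimulated with Substance P at EC80 for 6 h. Luminescence after ONE-GLO; percent inhibition fitted by four-parameter logistic to IC50.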
In general terms: In a reporter assay the amount or activity of a reporter protein is the signal.

A word on the IC50: it is the point on the concentration scale where inhibition reaches its midpoint. High values mean weaker potency, low ones greater potency. On to `CC(C)(O)CO[C@@H]1COc2c(-c3[nH]c4ncccc4c3-c3cccnc3C#N)c(C(F)F)nn2C1` [EX. 509], for which the IC50 (class symbols) was less than 10 nM. Turning to `CS(=O)(=O)N[C@@H]1COc2c(-c3[nH]c4ncccc4c3-c3ccncc3C#N)c(C(F)F)nn2C1` [EX. 523], the 50% inhibitory concentration (IC50) (class symbols) was less than 10 nM.

Under “class symbols”, `Cn1cc(-c2c(-c3c(C(F)F)nn4c3OCC(O)C4)[nH]c3ncccc23)c(OC(F)F)n1` (stereo not drawn) [EX. 426, 3-(3-(3-(difluoromethoxy)-1-methyl-1H-pyrazol-4-yl)-1H-pyrrolo[2,3-b]pyridin-2-yl)-2-(difluoromethyl)-6,7-dihydro-5H-pyrazolo[5,1-b] [1,3]oxazin-6-ol] came in with an IC50 of less than 10 nM. In turn, `CO[C@@H]1COc2c(-c3[nH]c4ncccc4c3-c3cn(C)nc3OC(F)F)c(C(F)F)nn2C1` [EX. 531] had an IC50 of 2.3 nM. The same molecule displayed an IC50 (class symbols) of less than 10 nM. `[2H]c1c([2H])c([2H])c(-c2[nH]c3nccc(F)c3c2-c2ccccc2C#N)c(O)c1[2H]` [EX. 45] had a half-maximal inhibitory concentration (IC50) (class symbols) of less than 10 nM. For `COc1ccc(C#N)c(-c2c(-c3c(OC)nn4cccnc34)[nH]c3ncccc23)c1` [EX. 225], the IC50 (class symbols) was less than 10 nM. On the same count and under the same terms, for `N#Cc1ccccc1-c1c(-c2c[nH]nc2C(F)(F)F)[nH]c2nccc(F)c12` [EX. 77] the value was less than 10 nM; for `CNC(=O)O[C@@H]1COc2c(-c3[nH]c4ncccc4c3-c3cn(C)nc3C#N)c(C(F)F)nn2C1` [EX. 503], less than 10 nM. The same measure, in the same setting: for `[2H]c1cnc2[nH]c(-c3c(C)nn4c3OCC4)c(-c3cc(OC([2H])([2H])[2H])ccc3C#N)c2c1` [EX. 218] the value was less than 10 nM; for `COC(=O)CO[C@@H]1COc2c(-c3[nH]c4ncccc4c3-c3cn(C)nc3OC(F)F)c(C(F)F)nn2C1` [EX. 530], less than 10 nM. The same measure, in the same setting: for `CC(=O)NCCO[C@@H]1COc2c(-c3[nH]c4ncccc4c3-c3cn(C)nc3OC(F)F)c(C(F)F)nn2C1` [EX. 537] the value was less than 10 nM; for `[2H]C([2H])([2H])Oc1ccc(C#N)c(-c2c(-c3c(C)nn4c3OCC[C@H]4C)[nH]c3ncccc23)c1` [EX. 178], less than 10 nM; for `Cc1nn2c(c1-c1[nH]c3ncccc3c1-c1cn(C)nc1OC(F)F)OC[C@@H](OCCO)C2` [EX. 542], less than 10 nM. With `[2H]C([2H])([2H])Oc1ccc(C#N)c(-c2c(-c3c(C)nn4c3OCC(O)C4)[nH]c3ncccc23)c1` (stereo not drawn) [EX. 199], where the note is “class symbols”, the IC50 was less than 10 nM.

As to `[2H]C([2H])([2H])n1cc(-c2[nH]c3ncccc3c2-c2cc(OC)ccc2C#N)c(C(F)F)n1` [EX. 377], for the setting “class symbols”, the 50% inhibitory concentration (IC50) was less than 10 nM. The same measure, in the same setting: the same measure for `COC(=O)N[C@@H]1COc2c(-c3[nH]c4ncccc4c3-c3csnc3OC(F)F)c(C(F)F)nn2C1` [EX. 518]: less than 10 nM; for `CCOC(=O)N[C@@H]1COc2c(-c3[nH]c4ncccc4c3-c3cn(C)nc3OC(F)F)c(C(F)F)nn2C1` [EX. 573]: less than 10 nM.

For the setting “class symbols”, `N#Cc1ccccc1-c1c(-c2ccccc2OCc2ccccc2)[nH]c2ncccc12` [EX. 109] yielded an IC50 of less than 10 nM. Regarding `COc1ncc(F)cc1-c1c(-c2c(C(F)F)nn3c2OC[C@@H](O)C3)[nH]c2ncccc12` [EX. 476], for the setting “class symbols”, the IC50 is less than 10 nM. For the setting “class symbols”, `COc1ccc(F)cc1-c1[nH]c2nccc(F)c2c1-c1ccccc1C#N` [EX. 27] came in with an IC50 of less than 10 nM.

The molecule `COc1ccc(C#N)c(-c2c(-c3c(C)nn4c3OCC(NC(=O)OC(C)(C)C)C4)[nH]c3ncccc23)c1` (stereo not drawn) [EX. 256] came in with an IC50 (class symbols) of less than 10 nM. Where the note is “class symbols”, `FC(F)Oc1nnc(Cl)cc1-c1c(-c2c(C(F)F)nn3c2OCCC3)[nH]c2ncccc12` [EX. 389, 3-(3-(6-chloro-3-(difluoromethoxy)pyridazin-4-yl)-1H-pyrrolo[2,3-b]pyridin-2-yl)-2-(difluoromethyl)-6,7-dihydro-5H-pyrazolo[5,1-b] [1,3]oxazine] displayed an IC50 of 10 to 100 nM. The same measure, in the same setting: for `Cn1cc(-c2c(-c3c(C(F)F)nn4c3OC[C@@H](NS(=O)(=O)CCO)C4)[nH]c3ncccc23)c(OC(F)F)n1` [EX. 577] the value was less than 10 nM; for `COC(=O)N[C@@H]1COc2c(-c3[nH]c4ncccc4c3-c3cn(C)nc3OC(F)F)c(C3CC3)nn2C1` [EX. 483], less than 10 nM. Same read-out and setting: for `COc1ccc(C#N)c(-c2c(-c3c[nH]nc3C(F)F)[nH]c3ncccc23)c1` [EX. 96] the value was less than 10 nM. `CNC(=O)O[C@@H]1COc2c(-c3[nH]c4ncccc4c3-c3cn(C)nc3OC(F)F)c(C(F)F)nn2C1` [EX. 540] returned an IC50 (class symbols) of less than 10 nM. The same measure, in the same setting: the same measure for `FC(F)c1nn2c(c1-c1[nH]c3ncccc3c1-c1cnsc1C(F)F)OCCC2` [EX. 416]: 10 to 100 nM; for `Cc1nn2c(c1-c1[nH]c3ncccc3c1-c1cn(C)nc1OC(F)F)OCCC2` [EX. 421, 3-(3-(3-(difluoromethoxy)-1-methyl-1H-pyrazol-4-yl)-1H-pyrrolo[2,3-b]pyridin-2-yl)-2-methyl-6,7-dihydro-5H-pyrazolo[5,1-b] [1,3]oxazine]: less than 10 nM; for `COc1ccc(C#N)c(-c2c(-c3c(C)nn4c(C)ccnc34)[nH]c3ncccc23)c1` [EX. 254]: less than 10 nM. On the same count and under the same terms, the same measure for `FC(F)Oc1cnccc1-c1c(-c2c(C(F)F)nn3c2OCCC3)[nH]c2ncccc12` [EX. 489]: less than 10 nM. Where the note is “class symbols”, `N#Cc1ccccc1-c1c(-c2cc(F)ccc2O)[nH]c2ncccc12` [EX. 54] showed an IC50 of less than 10 nM.

`Cn1cc(-c2c(-c3c(C(F)F)nn4c3OC[C@@H](NC(=O)[C@@H]3CC3(F)F)C4)[nH]c3ncccc23)c(OC(F)F)n1` [EX. 552] returned an IC50 (class symbols) of less than 10 nM. On to `COc1ncccc1-c1c(-c2c(C(F)F)nn3c2OC[C@@H](F)C3)[nH]c2ncccc12` [EX. 446], for which the IC50 (class symbols) was less than 10 nM. Same read-out and setting: the same measure for `FC(F)c1nn2c(c1-c1[nH]c3ncccc3c1-c1ccccc1)OC[C@@H](F)C2` [EX. 445]: less than 10 nM. `COC(=O)N[C@]1(C)COc2c(-c3[nH]c4ncccc4c3-c3cccnc3OC(F)F)c(C(F)F)nn2C1` [EX. 492]: the IC50 was found to be 1.9 nM. Besides, the IC50 (class symbols) is less than 10 nM. In the case of `Cc1nn2c(c1-c1[nH]c3ncccc3c1-c1cn(C)nc1OC(F)F)OC[C@@H](NS(C)(=O)=O)C2` [EX. 547], the half-maximal inhibitory concentration (IC50) (class symbols) is less than 10 nM.

For the molecule `[2H]C([2H])([2H])Oc1ccc(C#N)c(-c2c(-c3c(CF)nn4c3OCCC4)[nH]c3ncccc23)c1` [EX. 235], the IC50 (class symbols) is less than 10 nM.

As to `[2H]C([2H])([2H])Oc1ccc(C#N)c(-c2c(-c3c(CC)nn4c3OCCC4)[nH]c3ncccc23)c1` [EX. 200], the IC50 (class symbols) is less than 10 nM. Still for that read-out and setting: the same measure for `Cc1nn2c(c1-c1[nH]c3ncccc3c1-c1cccnc1OC(F)F)OC[C@@H](NC(=O)C1CC1)C2` [EX. 594, (S)—N-(3-(3-(2-(difluoromethoxy)pyridin-3-yl)-1H-pyrrolo[2,3-b]pyridin-2-yl)-2-methyl-6,7-dihydro-5H-pyrazolo[5,1-b] [1,3]oxazin-6-yl) cyclopropanecarboxamide]: less than 10 nM; for `Fc1ccc(-c2c(-c3c(C(F)F)nn4c3OC[C@@H](F)C4)[nH]c3ncccc23)c(OC(F)F)c1` [EX. 447]: less than 10 nM. On the same count and under the same terms, for `Cn1cc(-c2c(-c3c(C(F)F)nn4c3OC[C@@H](NC(=O)C3(O)CC3)C4)[nH]c3ncccc23)c(OC(F)F)n1` [EX. 589] the value was less than 10 nM; for `COc1ccc(C#N)c(-c2c(-c3c(C)nn4c3OCC4)[nH]c3ncccc23)c1` [EX. 230], less than 10 nM. Still for that read-out and setting: the same measure for `Cc1cc(-c2c(-c3c(C(F)F)nn4c3OC[C@@H](F)C4)[nH]c3ncccc23)c(Cl)s1` [EX. 436]: less than 10 nM.
